Measurements taken from PubChem BioAssay (NCI).
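Grown in 96-well plates, cells were treated for 48 hours with each compound at five concentrations. Insufficient inhibition: endpoint recorded as highest concentration tested. TGI: concentration producing complete growth inhibition.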

Experiments:
Test in all cases: NCI tumour cell line growth inhibition, 48 h
786-0 renal = tested on: 786-0 renal
A498 renal = tested on: A498 renal
A549 NSCLC = tested on: A549 NSCLC
ACHN renal = tested on: ACHN renal
BT-549 breast = tested on: BT-549 breast
CAKI-1 renal = tested on: CAKI-1 renal
COLO 205 colon = tested on: COLO 205 colon
DU-145 prostate = tested on: DU-145 prostate
EKVX NSCLC = tested on: EKVX NSCLC
HCC-2998 colon = tested on: HCC-2998 colon
HCT-116 colon = tested on: HCT-116 colon
HCT-15 colon = tested on: HCT-15 colon
HOP-62 NSCLC = tested on: HOP-62 NSCLC
HOP-92 NSCLC = tested on: HOP-92 NSCLC
HS 578T breast = tested on: HS 578T breast
HT29 colon = tested on: HT29 colon
IGROV1 ovarian = tested on: IGROV1 ovarian
KM12 colon = tested on: KM12 colon
LOX IMVI melanoma = tested on: LOX IMVI melanoma
M14 melanoma = tested on: M14 melanoma
MALME-3M melanoma = tested on: MALME-3M melanoma
MCF7 breast = tested on: MCF7 breast
MDA-MB-231 breast = tested on: MDA-MB-231 breast
MDA-MB-435 = tested on: MDA-MB-435
MDA-N = tested on: MDA-N
MOLT-4 leukemia = tested on: MOLT-4 leukemia
NCI-H226 lung = tested on: NCI-H226 lung
NCI-H23 lung = tested on: NCI-H23 lung
NCI-H460 lung = tested on: NCI-H460 lung
NCI-H522 lung = tested on: NCI-H522 lung
NCI/ADR-RES ovarian = tested on: NCI/ADR-RES ovarian
OVCAR-3 ovarian = tested on: OVCAR-3 ovarian
OVCAR-4 ovarian = tested on: OVCAR-4 ovarian
OVCAR-5 ovarian = tested on: OVCAR-5 ovarian
OVCAR-8 ovarian = tested on: OVCAR-8 ovarian
PC-3 prostate = tested on: PC-3 prostate
RPMI-8226 leukemia = tested on: RPMI-8226 leukemia
RXF 393 renal = tested on: RXF 393 renal
SF-268 CNS = tested on: SF-268 CNS
SF-295 CNS = tested on: SF-295 CNS
SF-539 CNS = tested on: SF-539 CNS
SK-MEL-2 melanoma = tested on: SK-MEL-2 melanoma
SK-MEL-28 melanoma = tested on: SK-MEL-28 melanoma
SK-MEL-5 melanoma = tested on: SK-MEL-5 melanoma
SK-OV-3 ovarian = tested on: SK-OV-3 ovarian
SN12C renal = tested on: SN12C renal
SNB-19 CNS = tested on: SNB-19 CNS
SNB-75 CNS = tested on: SNB-75 CNS
SR leukemia = tested on: SR leukemia
SW-620 colon = tested on: SW-620 colon
T-47D breast = tested on: T-47D breast
TK-10 renal = tested on: TK-10 renal
U251 CNS = tested on: U251 CNS
UACC-257 melanoma = tested on: UACC-257 melanoma
UACC-62 melanoma = tested on: UACC-62 melanoma
UO-31 renal = tested on: UO-31 renal
CCRF-CEM leukemia = tested on: CCRF-CEM leukemia
HL-60(TB) leukemia = tested on: HL-60(TB) leukemia
K-562 leukemia = tested on: K-562 leukemia

## COCCOC1=C(Cl)C(=O)c2c(O)ccc(O)c2C1=O
786-0 renal
  TGI: 3.23 µM
A498 renal
  TGI: 22.2 µM
A549 NSCLC
  TGI: 28.5 µM
ACHN renal
  TGI: 2960 nM
BT-549 breast
  TGI: 5.44 µM
CAKI-1 renal
  TGI: 1110 nM
COLO 205 colon
  TGI: 2340 nM
DU-145 prostate
  TGI: 13.2 µM
EKVX NSCLC
  TGI: 11.5 µM
HCC-2998 colon
  TGI: 15.6 µM
HCT-116 colon
  TGI: 2600 nM
HCT-15 colon
  TGI: 3.32 µM
HOP-62 NSCLC
  TGI: 9.94 µM
HOP-92 NSCLC
  TGI: 2200 nM
HS 578T breast
  TGI: 8.34 µM
HT29 colon
  TGI: 7.7 µM
IGROV1 ovarian
  TGI: 6.27 µM
KM12 colon
  TGI: 26.8 µM
LOX IMVI melanoma
  TGI: 3.28 µM
M14 melanoma
  TGI: 3.22 µM
MALME-3M melanoma
  TGI: 2170 nM
MCF7 breast
  TGI: 3.04 µM
MDA-MB-231 breast
  TGI: 3.2 µM
MDA-MB-435
  TGI: 2230 nM
MDA-N
  TGI: 3.03 µM
MOLT-4 leukemia
  TGI: 481 nM
NCI-H226 lung
  TGI: 28.9 µM
NCI-H23 lung
  TGI: 9.54 µM
NCI-H460 lung
  TGI: 17.2 µM
NCI-H522 lung
  TGI: 1670 nM
NCI/ADR-RES ovarian
  TGI: 8.5 µM
OVCAR-3 ovarian
  TGI: 3.08 µM
OVCAR-4 ovarian
  TGI: 4.34 µM
OVCAR-5 ovarian
  TGI: 13.7 µM
OVCAR-8 ovarian
  TGI: 6.66 µM
PC-3 prostate
  TGI: 13 µM
RPMI-8226 leukemia
  TGI: 1750 nM
RXF 393 renal
  TGI: 1.7 µM
SF-268 CNS
  TGI: 13 µM
SF-295 CNS
  TGI: 35.1 µM
SF-539 CNS
  TGI: 5.46 µM
SK-MEL-2 melanoma
  TGI: 14.5 µM
SK-MEL-28 melanoma
  TGI: 5.07 µM
SK-MEL-5 melanoma
  TGI: 5.15 µM
SK-OV-3 ovarian
  TGI: 30.7 µM
SN12C renal
  TGI: 4.04 µM
SNB-19 CNS
  TGI: 29.2 µM
SNB-75 CNS
  TGI: 13.9 µM
SR leukemia
  TGI: 3.19 µM
SW-620 colon
  TGI: 1400 nM
T-47D breast
  TGI: 6.61 µM
TK-10 renal
  TGI: 3.24 µM
U251 CNS
  TGI: 12.1 µM
UACC-257 melanoma
  TGI: 4.85 µM
UACC-62 melanoma
  TGI: 10.7 µM
UO-31 renal
  TGI: 3.83 µM

## COC(=O)[C@@H]1COC(C(C)(C)C)N1C(=O)C(c1ccccc1)c1ccccc1 (some centres undefined)
786-0 renal
  TGI: > 100 µM
A498 renal
  TGI: > 100 µM
A549 NSCLC
  TGI: > 100 µM
ACHN renal
  TGI: > 100000 nM
BT-549 breast
  TGI: > 100 µM
CAKI-1 renal
  TGI: > 100000 nM
CCRF-CEM leukemia
  TGI: 84.7 µM
COLO 205 colon
  TGI: > 100000 nM
DU-145 prostate
  TGI: > 100 µM
EKVX NSCLC
  TGI: > 100 µM
HCC-2998 colon
  TGI: > 100 µM
HCT-116 colon
  TGI: > 100000 nM
HCT-15 colon
  TGI: > 100 µM
HL-60(TB) leukemia
  TGI: 83.4 µM
HOP-62 NSCLC
  TGI: > 100 µM
HOP-92 NSCLC
  TGI: > 100000 nM
HS 578T breast
  TGI: > 100 µM
HT29 colon
  TGI: > 100 µM
IGROV1 ovarian
  TGI: > 100 µM
K-562 leukemia
  TGI: 70.4 µM
KM12 colon
  TGI: > 100 µM
LOX IMVI melanoma
  TGI: 52.1 µM
M14 melanoma
  TGI: > 100 µM
MALME-3M melanoma
  TGI: > 100000 nM
MCF7 breast
  TGI: > 100 µM
MDA-MB-231 breast
  TGI: 81.8 µM
MDA-MB-435
  TGI: > 100000 nM
MDA-N
  TGI: 69.2 µM
MOLT-4 leukemia
  TGI: > 100000 nM
NCI-H226 lung
  TGI: > 100 µM
NCI-H23 lung
  TGI: > 100 µM
NCI-H460 lung
  TGI: > 100 µM
NCI-H522 lung
  TGI: > 100000 nM
NCI/ADR-RES ovarian
  TGI: > 100 µM
OVCAR-3 ovarian
  TGI: > 100 µM
OVCAR-4 ovarian
  TGI: > 100 µM
OVCAR-5 ovarian
  TGI: > 100 µM
OVCAR-8 ovarian
  TGI: > 100 µM
PC-3 prostate
  TGI: > 100 µM
RXF 393 renal
  TGI: 38.1 µM
SF-268 CNS
  TGI: > 100 µM
SF-295 CNS
  TGI: > 100 µM
SF-539 CNS
  TGI: > 100 µM
SK-MEL-2 melanoma
  TGI: > 100 µM
SK-MEL-28 melanoma
  TGI: > 100 µM
SK-MEL-5 melanoma
  TGI: > 100 µM
SK-OV-3 ovarian
  TGI: 88.4 µM
SN12C renal
  TGI: > 100 µM
SNB-19 CNS
  TGI: > 100 µM
SNB-75 CNS
  TGI: > 100 µM
SR leukemia
  TGI: 33.9 µM
SW-620 colon
  TGI: > 100000 nM
T-47D breast
  TGI: > 100 µM
TK-10 renal
  TGI: > 100 µM
U251 CNS
  TGI: > 100 µM
UACC-257 melanoma
  TGI: > 100 µM
UACC-62 melanoma
  TGI: > 100 µM
UO-31 renal
  TGI: > 100 µM
